Earlier results in PMC9851200, “Multiparameter phenotypic screening for endogenous TFEB and TFE3 translocation identifies novel chemical series modulating lysosome function” (Autophagy, 2022).

Columns and labels:
Parameters in all cases: method as in original PKIS2 published data
[1] = target: kinases (KINOMEscan panel) (Homo sapiens, UniProt P08631); settings: kinase HCK; Published KINOMEscan; ref original PKIS2 published data; cited from earlier work
[2] = target: kinases (KINOMEscan panel) (Homo sapiens, UniProt P09769); settings: FGR; Published KINOMEscan; ref original PKIS2 published data; cited from earlier work
Sequence of kinases (KINOMEscan panel) (Homo sapiens, UniProt P09769) (P09769 whole entry): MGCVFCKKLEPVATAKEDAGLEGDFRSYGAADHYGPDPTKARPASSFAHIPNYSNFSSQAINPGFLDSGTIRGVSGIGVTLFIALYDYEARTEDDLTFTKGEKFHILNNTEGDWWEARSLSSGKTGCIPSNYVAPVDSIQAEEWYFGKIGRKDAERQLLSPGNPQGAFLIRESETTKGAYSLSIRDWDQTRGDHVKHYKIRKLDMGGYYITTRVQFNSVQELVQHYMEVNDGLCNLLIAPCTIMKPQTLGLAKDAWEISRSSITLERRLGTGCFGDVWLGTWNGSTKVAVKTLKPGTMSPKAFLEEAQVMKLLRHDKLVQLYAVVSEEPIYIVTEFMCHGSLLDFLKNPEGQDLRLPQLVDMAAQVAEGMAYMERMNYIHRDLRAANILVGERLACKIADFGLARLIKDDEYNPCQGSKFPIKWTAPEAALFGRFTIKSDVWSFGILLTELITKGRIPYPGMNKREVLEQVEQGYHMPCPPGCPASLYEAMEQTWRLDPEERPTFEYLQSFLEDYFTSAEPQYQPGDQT

[3] = target: kinases (KINOMEscan panel) (Homo sapiens, UniProt P35916); settings: FLT4; Published KINOMEscan; ref original PKIS2 published data; cited from earlier work
Sequence of kinases (KINOMEscan panel) (Homo sapiens, UniProt P35916) (P35916 25-1363): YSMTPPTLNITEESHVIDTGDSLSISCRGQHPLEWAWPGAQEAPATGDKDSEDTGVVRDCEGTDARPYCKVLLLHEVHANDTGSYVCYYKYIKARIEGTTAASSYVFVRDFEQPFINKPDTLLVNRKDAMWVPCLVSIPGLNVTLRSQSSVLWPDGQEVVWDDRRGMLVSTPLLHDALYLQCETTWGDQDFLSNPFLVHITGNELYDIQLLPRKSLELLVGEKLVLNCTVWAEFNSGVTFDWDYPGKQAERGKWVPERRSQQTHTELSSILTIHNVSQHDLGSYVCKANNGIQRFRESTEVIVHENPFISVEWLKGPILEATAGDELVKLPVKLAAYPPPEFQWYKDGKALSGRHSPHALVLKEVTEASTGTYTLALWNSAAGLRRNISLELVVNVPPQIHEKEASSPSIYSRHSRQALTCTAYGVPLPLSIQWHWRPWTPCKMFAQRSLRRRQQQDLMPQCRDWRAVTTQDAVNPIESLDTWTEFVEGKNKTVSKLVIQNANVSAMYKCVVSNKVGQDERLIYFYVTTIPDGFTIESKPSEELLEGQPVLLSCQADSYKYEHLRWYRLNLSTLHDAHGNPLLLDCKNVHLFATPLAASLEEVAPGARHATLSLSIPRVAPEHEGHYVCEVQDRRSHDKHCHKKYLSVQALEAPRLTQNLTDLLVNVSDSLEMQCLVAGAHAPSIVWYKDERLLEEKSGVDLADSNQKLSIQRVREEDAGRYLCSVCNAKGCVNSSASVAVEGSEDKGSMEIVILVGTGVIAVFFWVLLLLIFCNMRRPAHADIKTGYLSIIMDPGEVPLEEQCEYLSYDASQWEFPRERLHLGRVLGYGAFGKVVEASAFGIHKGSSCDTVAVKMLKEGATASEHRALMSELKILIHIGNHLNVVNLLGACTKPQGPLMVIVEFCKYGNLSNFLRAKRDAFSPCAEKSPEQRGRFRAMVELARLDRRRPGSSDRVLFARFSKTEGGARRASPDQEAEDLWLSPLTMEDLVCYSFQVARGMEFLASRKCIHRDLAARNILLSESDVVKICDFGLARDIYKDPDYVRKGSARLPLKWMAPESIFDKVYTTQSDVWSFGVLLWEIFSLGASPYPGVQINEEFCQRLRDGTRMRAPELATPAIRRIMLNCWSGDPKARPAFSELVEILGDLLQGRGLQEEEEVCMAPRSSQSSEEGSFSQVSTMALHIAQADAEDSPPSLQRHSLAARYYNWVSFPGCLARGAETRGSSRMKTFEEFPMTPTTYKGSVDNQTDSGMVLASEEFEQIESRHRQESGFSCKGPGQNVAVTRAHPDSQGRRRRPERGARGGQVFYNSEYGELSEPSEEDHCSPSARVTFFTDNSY

[4] = target: kinases (KINOMEscan panel) (Homo sapiens, UniProt P53350); settings: PLK1; Published KINOMEscan; ref original PKIS2 published data; cited from earlier work
[5] = target: kinases (KINOMEscan panel) (Homo sapiens, UniProt P54764); settings: EPHA4; Published KINOMEscan; ref original PKIS2 published data; cited from earlier work
Sequence of kinases (KINOMEscan panel) (Homo sapiens, UniProt P54764) (P54764 20-986): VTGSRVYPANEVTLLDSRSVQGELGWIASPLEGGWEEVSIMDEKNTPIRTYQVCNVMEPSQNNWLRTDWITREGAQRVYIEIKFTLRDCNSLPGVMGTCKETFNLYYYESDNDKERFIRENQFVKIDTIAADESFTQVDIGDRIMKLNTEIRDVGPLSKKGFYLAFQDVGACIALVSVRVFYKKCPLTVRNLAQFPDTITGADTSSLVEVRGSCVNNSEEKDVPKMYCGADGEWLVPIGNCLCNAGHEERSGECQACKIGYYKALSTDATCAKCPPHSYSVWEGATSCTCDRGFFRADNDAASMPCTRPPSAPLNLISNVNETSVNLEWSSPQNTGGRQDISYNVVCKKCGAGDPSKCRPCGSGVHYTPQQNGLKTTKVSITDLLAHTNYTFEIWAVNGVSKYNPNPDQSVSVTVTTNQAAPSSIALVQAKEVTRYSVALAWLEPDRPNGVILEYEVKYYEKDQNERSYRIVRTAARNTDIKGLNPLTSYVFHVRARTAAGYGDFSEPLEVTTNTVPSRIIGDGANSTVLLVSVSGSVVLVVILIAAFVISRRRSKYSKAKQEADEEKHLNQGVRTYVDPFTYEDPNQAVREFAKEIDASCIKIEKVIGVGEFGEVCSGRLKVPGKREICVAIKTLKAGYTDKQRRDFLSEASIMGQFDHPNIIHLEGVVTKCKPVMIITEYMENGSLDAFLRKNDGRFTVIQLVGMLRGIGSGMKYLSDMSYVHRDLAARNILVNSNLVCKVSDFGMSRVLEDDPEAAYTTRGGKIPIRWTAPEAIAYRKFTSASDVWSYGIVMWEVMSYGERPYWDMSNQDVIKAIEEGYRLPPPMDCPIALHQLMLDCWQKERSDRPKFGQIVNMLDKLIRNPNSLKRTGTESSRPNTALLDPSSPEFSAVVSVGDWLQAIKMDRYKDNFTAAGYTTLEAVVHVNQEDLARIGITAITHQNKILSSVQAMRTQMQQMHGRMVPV

[6] = target: kinases (KINOMEscan panel) (Homo sapiens, UniProt Q02779); settings: kinase MAP3K10; Published KINOMEscan; ref original PKIS2 published data; cited from earlier work
[7] = target: kinases (KINOMEscan panel) (Homo sapiens, UniProt Q16816); settings: PHKG1; Published KINOMEscan; ref original PKIS2 published data; cited from earlier work
[8] = target: T1, kinases (KINOMEscan panel) (Homo sapiens, UniProt Q8TBX8); settings: PIP4K2C; Published KINOMEscan; ref original PKIS2 published data; cited from earlier work
T1 sequence (Q8TBX8 1-421): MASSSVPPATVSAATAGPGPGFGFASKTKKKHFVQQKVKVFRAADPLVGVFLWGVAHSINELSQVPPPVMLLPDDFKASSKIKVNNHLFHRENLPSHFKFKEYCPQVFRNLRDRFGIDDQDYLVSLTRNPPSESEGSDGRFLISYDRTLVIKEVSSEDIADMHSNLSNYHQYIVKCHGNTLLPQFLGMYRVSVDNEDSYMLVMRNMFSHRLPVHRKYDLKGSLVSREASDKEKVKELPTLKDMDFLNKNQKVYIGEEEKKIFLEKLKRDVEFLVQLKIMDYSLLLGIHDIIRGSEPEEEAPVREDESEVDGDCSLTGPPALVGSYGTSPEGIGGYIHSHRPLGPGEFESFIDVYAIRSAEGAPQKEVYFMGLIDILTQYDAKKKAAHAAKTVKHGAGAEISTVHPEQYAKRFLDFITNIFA

[9] = target: T2, kinases (KINOMEscan panel) (Homo sapiens, UniProt Q96L34); settings: kinase MARK4; Published KINOMEscan; ref original PKIS2 published data; cited from earlier work
T2 sequence (Q96L34 1-752): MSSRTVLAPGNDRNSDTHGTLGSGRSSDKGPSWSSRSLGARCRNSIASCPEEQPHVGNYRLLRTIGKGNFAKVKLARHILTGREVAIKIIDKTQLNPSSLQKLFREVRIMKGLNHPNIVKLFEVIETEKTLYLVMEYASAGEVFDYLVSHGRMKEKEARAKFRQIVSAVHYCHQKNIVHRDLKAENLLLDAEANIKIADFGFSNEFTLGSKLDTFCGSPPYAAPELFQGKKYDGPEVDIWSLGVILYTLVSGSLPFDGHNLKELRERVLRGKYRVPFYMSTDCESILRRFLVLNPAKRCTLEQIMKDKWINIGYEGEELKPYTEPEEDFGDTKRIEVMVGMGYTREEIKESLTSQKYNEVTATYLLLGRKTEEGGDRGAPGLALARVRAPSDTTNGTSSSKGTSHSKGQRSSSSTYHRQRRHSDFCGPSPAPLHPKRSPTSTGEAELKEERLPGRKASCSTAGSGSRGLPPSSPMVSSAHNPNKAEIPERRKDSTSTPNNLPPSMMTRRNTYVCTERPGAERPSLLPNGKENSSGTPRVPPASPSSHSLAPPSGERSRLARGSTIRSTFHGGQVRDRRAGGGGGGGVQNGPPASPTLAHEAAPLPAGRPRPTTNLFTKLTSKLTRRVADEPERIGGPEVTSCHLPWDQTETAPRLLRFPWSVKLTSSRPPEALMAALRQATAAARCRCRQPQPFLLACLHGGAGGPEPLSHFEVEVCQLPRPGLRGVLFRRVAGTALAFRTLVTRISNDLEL

[10] = target: kinases (KINOMEscan panel) (Homo sapiens, UniProt Q9UKE5); settings: TNIK; Published KINOMEscan; ref original PKIS2 published data; cited from earlier work
Sequence of kinases (KINOMEscan panel) (Homo sapiens, UniProt Q9UKE5) (Q9UKE5 whole entry): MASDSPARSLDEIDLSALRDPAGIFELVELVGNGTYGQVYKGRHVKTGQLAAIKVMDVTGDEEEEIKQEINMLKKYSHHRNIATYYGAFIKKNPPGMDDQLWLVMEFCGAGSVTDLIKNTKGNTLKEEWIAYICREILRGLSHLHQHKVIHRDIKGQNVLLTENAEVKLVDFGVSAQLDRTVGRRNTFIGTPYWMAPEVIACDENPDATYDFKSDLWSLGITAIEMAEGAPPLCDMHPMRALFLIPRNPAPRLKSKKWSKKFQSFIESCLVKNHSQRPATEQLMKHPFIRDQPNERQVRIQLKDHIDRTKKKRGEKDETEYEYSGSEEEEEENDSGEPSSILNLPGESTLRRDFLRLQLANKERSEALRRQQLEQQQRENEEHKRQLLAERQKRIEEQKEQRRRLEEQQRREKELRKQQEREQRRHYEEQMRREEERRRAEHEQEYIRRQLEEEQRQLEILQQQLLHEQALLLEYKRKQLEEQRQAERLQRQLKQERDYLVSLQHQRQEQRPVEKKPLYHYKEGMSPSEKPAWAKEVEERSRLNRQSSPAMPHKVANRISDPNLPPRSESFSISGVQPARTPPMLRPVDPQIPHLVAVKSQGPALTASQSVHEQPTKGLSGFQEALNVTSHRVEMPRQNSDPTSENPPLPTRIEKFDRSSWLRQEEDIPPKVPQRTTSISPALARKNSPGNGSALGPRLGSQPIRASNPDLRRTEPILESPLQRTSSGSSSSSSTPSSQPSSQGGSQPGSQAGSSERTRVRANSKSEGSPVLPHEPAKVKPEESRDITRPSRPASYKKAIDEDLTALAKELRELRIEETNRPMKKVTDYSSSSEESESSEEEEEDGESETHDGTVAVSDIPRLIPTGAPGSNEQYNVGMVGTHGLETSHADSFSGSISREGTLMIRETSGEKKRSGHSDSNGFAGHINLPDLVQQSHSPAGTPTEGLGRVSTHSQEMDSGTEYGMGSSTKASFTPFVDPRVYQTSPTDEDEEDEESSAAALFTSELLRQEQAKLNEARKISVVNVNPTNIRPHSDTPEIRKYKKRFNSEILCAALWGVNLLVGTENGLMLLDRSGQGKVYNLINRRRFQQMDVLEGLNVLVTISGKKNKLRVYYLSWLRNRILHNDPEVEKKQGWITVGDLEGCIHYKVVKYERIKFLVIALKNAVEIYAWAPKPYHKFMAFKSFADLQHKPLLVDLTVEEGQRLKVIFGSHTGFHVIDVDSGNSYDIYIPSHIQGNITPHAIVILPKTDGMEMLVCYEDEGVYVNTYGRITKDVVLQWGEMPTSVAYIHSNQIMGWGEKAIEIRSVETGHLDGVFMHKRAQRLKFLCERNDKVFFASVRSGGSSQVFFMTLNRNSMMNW

[11] = target: T3, kinases (KINOMEscan panel) (Homo sapiens, UniProt Q9UPZ9); settings: CILK1; Published KINOMEscan; ref original PKIS2 published data; cited from earlier work
T3 sequence (Q9UPZ9 1-632): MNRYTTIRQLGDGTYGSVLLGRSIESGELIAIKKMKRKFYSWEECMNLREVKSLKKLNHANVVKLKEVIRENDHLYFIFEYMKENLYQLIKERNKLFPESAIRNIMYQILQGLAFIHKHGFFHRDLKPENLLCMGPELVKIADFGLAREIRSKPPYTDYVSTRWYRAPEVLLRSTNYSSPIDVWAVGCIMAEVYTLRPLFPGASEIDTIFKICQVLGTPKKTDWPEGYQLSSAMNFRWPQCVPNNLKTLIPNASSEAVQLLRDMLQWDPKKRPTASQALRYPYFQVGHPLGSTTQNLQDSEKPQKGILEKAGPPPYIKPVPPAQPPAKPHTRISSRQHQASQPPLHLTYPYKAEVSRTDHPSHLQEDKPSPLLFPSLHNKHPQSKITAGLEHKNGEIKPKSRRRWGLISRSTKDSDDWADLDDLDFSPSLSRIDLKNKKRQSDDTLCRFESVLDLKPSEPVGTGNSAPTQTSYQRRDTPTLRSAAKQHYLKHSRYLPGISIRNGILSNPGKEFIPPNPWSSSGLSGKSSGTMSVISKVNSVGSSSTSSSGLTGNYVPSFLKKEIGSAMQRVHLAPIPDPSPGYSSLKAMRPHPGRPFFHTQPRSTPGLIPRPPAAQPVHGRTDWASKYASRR

Sequence of kinases (KINOMEscan panel) (Homo sapiens, UniProt P08631) (P08631 whole entry): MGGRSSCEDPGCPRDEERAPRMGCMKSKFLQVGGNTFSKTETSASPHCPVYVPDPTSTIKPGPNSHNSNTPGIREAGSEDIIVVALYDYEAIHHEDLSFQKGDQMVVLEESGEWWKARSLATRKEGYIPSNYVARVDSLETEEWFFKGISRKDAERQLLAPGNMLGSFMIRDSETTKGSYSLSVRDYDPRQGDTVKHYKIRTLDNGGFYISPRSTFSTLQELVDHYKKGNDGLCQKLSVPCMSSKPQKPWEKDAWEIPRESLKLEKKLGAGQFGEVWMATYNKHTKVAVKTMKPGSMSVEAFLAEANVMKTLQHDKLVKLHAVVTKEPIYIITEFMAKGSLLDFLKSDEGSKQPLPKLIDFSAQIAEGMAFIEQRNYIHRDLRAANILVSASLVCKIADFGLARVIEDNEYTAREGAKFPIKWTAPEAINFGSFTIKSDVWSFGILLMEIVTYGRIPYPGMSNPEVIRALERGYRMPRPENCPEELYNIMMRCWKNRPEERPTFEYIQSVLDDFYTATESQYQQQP

## Cc1cccc(-c2nc(Nc3ccncc3)c3ccccc3n2)n1 [NK215]
[1]
  KINOMEscan HCK: 11
[2]
  KINOMEscan FGR: 31
[3]
  KINOMEscan FLT4: 1
[4]
  KINOMEscan PLK1: 6
[5]
  KINOMEscan EPHA4: 18
[6]
  KINOMEscan MAP3K10: 7
[7]
  KINOMEscan PHKG1: 47
[8]
  KINOMEscan PIP4K2C: 18
[9]
  KINOMEscan MARK4: 25
[10]
  KINOMEscan TNIK: 29
[11]
  KINOMEscan CILK1: 0
